Test results: patent publication US12539292B2, “BRM targeting compounds and associated methods of use” (Arvinas Operations, Inc., priority 2018, dated 2026)
Read-outs that look alike come from different tables or passages of the source.

Biological target: T1, BRM (Homo sapiens, UniProt P51531)
T1 construct: In-Cell Western Screen of BRM Degradation in SW1573 Cells; endogenous in cells; host or cells: SW1573
Assay: In-cell Western screen of BRM degradation in SW1573 cells (Dmax and DC50)
Type: cell-based
Procedure, shortened: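 Adherent SW1573 cultures exposed to test compounds for 18-20 h were processed for in-cell Western after PFA fixation and detergent permeabilization. BRM degradation was reported as Dmax and DC50.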

[1] = BRM degradation, SW1573 cells, read-out: DC50
[2] = BRM degradation, SW1573 cells, read-out: Dmax (% degraded)
[3] = target protein degradation, read-out: BRM DC50

T1 sequence (P51531 whole entry): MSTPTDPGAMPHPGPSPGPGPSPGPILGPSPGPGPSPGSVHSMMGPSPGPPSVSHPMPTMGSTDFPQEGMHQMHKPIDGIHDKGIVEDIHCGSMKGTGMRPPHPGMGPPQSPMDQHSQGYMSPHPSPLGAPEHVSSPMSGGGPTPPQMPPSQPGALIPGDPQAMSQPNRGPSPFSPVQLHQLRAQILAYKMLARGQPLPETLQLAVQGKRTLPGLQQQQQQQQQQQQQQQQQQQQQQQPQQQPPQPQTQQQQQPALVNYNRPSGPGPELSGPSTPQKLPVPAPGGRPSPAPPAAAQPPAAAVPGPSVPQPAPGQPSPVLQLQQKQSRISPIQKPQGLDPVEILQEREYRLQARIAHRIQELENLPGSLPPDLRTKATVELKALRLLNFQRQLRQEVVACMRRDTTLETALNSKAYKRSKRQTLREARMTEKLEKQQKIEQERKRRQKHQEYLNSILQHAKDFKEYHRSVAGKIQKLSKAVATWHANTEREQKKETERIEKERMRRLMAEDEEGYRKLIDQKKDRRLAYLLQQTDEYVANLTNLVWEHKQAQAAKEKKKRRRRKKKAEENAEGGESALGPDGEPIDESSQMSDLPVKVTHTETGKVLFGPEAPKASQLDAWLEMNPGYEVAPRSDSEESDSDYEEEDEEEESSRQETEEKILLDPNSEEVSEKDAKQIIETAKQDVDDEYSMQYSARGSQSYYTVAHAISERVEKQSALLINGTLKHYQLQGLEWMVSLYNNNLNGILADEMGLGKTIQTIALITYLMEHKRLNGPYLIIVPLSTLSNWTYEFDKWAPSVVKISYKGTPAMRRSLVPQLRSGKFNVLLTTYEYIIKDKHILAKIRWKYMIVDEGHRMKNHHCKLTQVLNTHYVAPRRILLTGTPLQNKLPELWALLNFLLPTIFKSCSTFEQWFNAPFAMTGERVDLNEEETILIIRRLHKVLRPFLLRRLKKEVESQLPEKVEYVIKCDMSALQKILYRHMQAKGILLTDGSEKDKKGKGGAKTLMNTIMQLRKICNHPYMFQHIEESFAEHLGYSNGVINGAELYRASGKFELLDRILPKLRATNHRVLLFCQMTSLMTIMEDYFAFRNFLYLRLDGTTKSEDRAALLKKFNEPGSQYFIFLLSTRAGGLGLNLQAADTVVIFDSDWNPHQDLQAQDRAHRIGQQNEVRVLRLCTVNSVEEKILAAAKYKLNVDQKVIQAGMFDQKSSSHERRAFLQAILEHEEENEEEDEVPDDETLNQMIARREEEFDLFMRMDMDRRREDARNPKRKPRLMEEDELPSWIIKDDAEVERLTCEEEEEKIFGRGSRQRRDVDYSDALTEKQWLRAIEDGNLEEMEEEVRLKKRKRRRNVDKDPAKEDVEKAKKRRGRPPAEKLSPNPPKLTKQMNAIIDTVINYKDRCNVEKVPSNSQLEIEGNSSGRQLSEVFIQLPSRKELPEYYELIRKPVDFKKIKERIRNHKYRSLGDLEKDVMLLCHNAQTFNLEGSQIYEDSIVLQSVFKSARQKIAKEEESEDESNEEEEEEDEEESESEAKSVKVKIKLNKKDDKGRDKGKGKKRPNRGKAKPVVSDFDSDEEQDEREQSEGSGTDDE

Cc1ncsc1-c1ccc(C2(NC(=O)[C@@H]3C[C@@H](O)CN3C(=O)[C@@H](c3cc(OCCN4CCN(CCOc5cc(N6C7CCC6CN(c6cc(-c8ccccc8O)nnc6N)C7)ccn5)CC4)no3)C(C)C)CN(C)C2)cc1 [compound 126, (2S,4R)-1-((2R)-2-(3-(2-(4-(2-((4-(3-(3-amino-6-(2-hydroxyphenyl)pyridazin-4-yl)-3,8-diazabicyclo[3.2.1]octan-8-yl)pyridin-2-yl)oxy)ethyl)piperazin-1-yl)ethoxy)isoxazol-5-yl)-3-methylbutanoyl)-4-hydroxy-N-(1-methyl-3-(4-(4-methylthiazol-5-yl)phenyl)azetidin-3-yl)pyrrolidine-2-carboxamide]
DC50 [1]: 2.5 to 10 nM | Dmax (BRM degradation, SW1573 cells, when tested at the top concentration of between 0.3 and 10 μM, read-out: Dmax (%) (% degraded)): > 75%

Cc1ncsc1-c1ccc(C(CCCP(=O)(O)O)NC(=O)[C@@H]2C[C@@H](O)CN2C(=O)[C@@H](c2cc(OCCN3CCC(O[C@H]4C[C@H](Oc5cc(N6C7CCC6CN(c6cc(-c8ccccc8O)nnc6N)C7)ccn5)C4)CC3)no2)C(C)C)cc1 (stereo partly drawn) [compound 702, (4-((2S,4R)-1-((2R)-2-(3-(2-(4-((1r,3R)-3-((4-(3-(3-amino-6-(2-hydroxyphenyl)pyridazin-4-yl)-3,8-diazabicyclo[3.2.1]octan-8-yl)pyridin-2-yl)oxy)cyclobutoxy)piperidin-1-yl)ethoxy)isoxazol-5-yl)-3-methylbutanoyl)-4-hydroxypyrrolidine-2-carboxamido)-4-(4-(4-methylthiazol-5-yl)phenyl)butyl)phosphonic acid]
DC50 (BRM degradation, SW1573 cells): > 30 nM

Cc1ncsc1-c1ccc([C@H](C)NC(=O)[C@@H]2C[C@@H](O)CN2C(=O)[C@H](c2cc(N3CCN(C(C)[C@H]4C[C@H](Oc5cc(N6C7CCC6CN(c6cc(-c8ccccc8O)nnc6N)C7)ccn5)C4)CC3)no2)C(C)C)cc1 (stereo partly drawn) [compound 703, (2S,4R)-1-((2S)-2-(3-(4-((1S)-1-((1r,3S)-3-((4-(3-(3-amino-6-(2-hydroxyphenyl)pyridazin-4-yl)-3,8-diazabicyclo[3.2.1]octan-8-yl)pyridin-2-yl)oxy)cyclobutyl)ethyl)piperazin-1-yl)isoxazol-5-yl)-3-methylbutanoyl)-4-hydroxy-N-((S)-1-(4-(4-methylthiazol-5-yl)phenyl)ethyl)pyrrolidine-2-carboxamide]
DC50 [1]: 2.5 to 10 nM | Dmax [2]: > 75%

Cc1ncsc1-c1ccc([C@H](C)NC(=O)[C@@H]2C[C@@H](O)CN2C(=O)[C@H](c2cc(N3CCC(CN4CCC(O[C@H]5C[C@H](Oc6cc(N7C8CCC7CN(c7cc(-c9ccccc9O)nnc7N)C8)ccn6)C5)CC4)CC3)no2)C(C)C)cc1F [compound 651, (2S,4R)-1-((2S)-2-(3-(4-((4-((1r,3r)-3-((4-(3-(3-amino-6-(2-hydroxyphenyl)pyridazin-4-yl)-3,8-diazabicyclo[3.2.1]octan-8-yl)pyridin-2-yl)oxy)cyclobutoxy)piperidin-1-yl)methyl)piperidin-1-yl)isoxazol-5-yl)-3-methylbutanoyl)-N-((S)-1-(3-fluoro-4-(4-methylthiazol-5-yl)phenyl)ethyl)-4-hydroxypyrrolidine-2-carboxamide]
DC50 [1]: > 30 nM

COc1cc(-c2scnc2C)ccc1[C@H](C)NC(=O)[C@@H]1C[C@@H](O)CN1C(=O)[C@@H](c1cc(OCCN2CCC(O[C@H]3C[C@H](Oc4cc(N5C6CCC5CN(c5cc(-c7ccccc7O)nnc5N)C6)ccn4)C3)CC2)no1)C(C)C [compound 202, (2S,4R)-1-((2R)-2-(3-(2-(4-((1r,3R)-3-((4-(3-(3-amino-6-(2-hydroxyphenyl)pyridazin-4-yl)-3,8-diazabicyclo[3.2.1]octan-8-yl)pyridin-2-yl)oxy)cyclobutoxy)piperidin-1-yl)ethoxy)isoxazol-5-yl)-3-methylbutanoyl)-4-hydroxy-N-((S)-1-(2-methoxy-4-(4-methylthiazol-5-yl)phenyl)ethyl)pyrrolidine-2-carboxamide]
DC50 [1]: < 2.5 nM | Dmax (BRM degradation, SW1573 cells, tested at the top concentration of between 0.3 and 10 μM, read-out: Dmax (%) (% degraded)): > 75%

Cc1cc([C@H](C(=O)N2C[C@H](O)C[C@H]2C(=O)N[C@@H](C)c2ccc(-c3scnc3C)cc2)[C@@H](C)CO[C@H]2C[C@@H](Oc3cc(N4C5CCC4CN(c4cc(-c6ccccc6O)nnc4N)C5)ccn3)C2)on1 [compound 482, (2S,4R)-1-((2R,3R)-4-((1s,3S)-3-((4-(3-(3-amino-6-(2-hydroxyphenyl)pyridazin-4-yl)-3,8-diazabicyclo[3.2.1]octan-8-yl)pyridin-2-yl)oxy)cyclobutoxy)-3-methyl-2-(3-methylisoxazol-5-yl)butanoyl)-4-hydroxy-N-((S)-1-(4-(4-methylthiazol-5-yl)phenyl)ethyl)pyrrolidine-2-carboxamide]
DC50 [3]: > 30 nM

Cc1cc([C@H](C(=O)N2C[C@H](O)C[C@H]2C(=O)N[C@@H](C)c2ccc(-c3scnc3C)cc2)[C@H](C)COCCCn2cc(-c3cc(-c4ccccc4O)nnc3N)cn2)on1 [compound 560, (2S,4R)-1-((2R,3S)-4-(3-(4-(3-amino-6-(2-hydroxyphenyl)pyridazin-4-yl)-1H-pyrazol-1-yl)propoxy)-3-methyl-2-(3-methylisoxazol-5-yl)butanoyl)-4-hydroxy-N-((S)-1-(4-(4-methylthiazol-5-yl)phenyl)ethyl)pyrrolidine-2-carboxamide]
DC50 (BRM degradation, SW1573 cells, Table 2D, read-out: *DC50): > 30 nM

CC(C)[C@H](C(=O)N1C[C@H](O)C[C@H]1C(=O)N[C@@H](C)c1ccc(-n2ccccc2=O)cc1)c1cc(OCCN2CCC(O[C@H]3C[C@H](Oc4cc(N5C6CCC5CN(c5cc(-c7ccccc7O)nnc5N)C6)ccn4)C3)CC2)no1 [compound 372, (2S,4R)-1-((2S)-2-(3-(2-(4-((1r,3S)-3-((4-(3-(3-amino-6-(2-hydroxyphenyl)pyridazin-4-yl)-3,8-diazabicyclo[3.2.1]octan-8-yl)pyridin-2-yl)oxy)cyclobutoxy)piperidin-1-yl)ethoxy)isoxazol-5-yl)-3-methylbutanoyl)-4-hydroxy-N-((S)-1-(4-(2-oxopyridin-1(2H)-yl)phenyl)ethyl)pyrrolidine-2-carboxamide]
Dmax (SW1573, % degraded, when tested at the top concentration of between 0.3 and 10 μM, read-out: BRM Dmax (%)): > 75% | DC50 [3]: > 30 nM

Cc1ncsc1-c1ccc([C@H](CO)NC(=O)[C@@H]2C[C@@H](O)CN2C(=O)[C@@H](c2cc(N3CCC(CN4CCC(O[C@H]5C[C@H](Oc6cc(N7C8CCC7CN(c7cc(-c9ccccc9O)nnc7N)C8)ccn6)C5)CC4)CC3)no2)C(C)C)cc1 [compound 653, (2S,4R)-1-((2R)-2-(3-(4-((4-((1r,3r)-3-((4-(3-(3-amino-6-(2-hydroxyphenyl)pyridazin-4-yl)-3,8-diazabicyclo[3.2.1]octan-8-yl)pyridin-2-yl)oxy)cyclobutoxy)piperidin-1-yl)methyl)piperidin-1-yl)isoxazol-5-yl)-3-methylbutanoyl)-4-hydroxy-N-((R)-2-hydroxy-1-(4-(4-methylthiazol-5-yl)phenyl)ethyl)pyrrolidine-2-carboxamide]
DC50 [1]: < 2.5 nM | Dmax [2]: > 75%

CC(C)[C@H](C(=O)N1C[C@H](O)C[C@H]1C(=O)N[C@@H](C)c1ccc(C2CC2(F)F)cc1)c1cc(OCCN2CCC(O[C@H]3C[C@H](Oc4cc(N5C6CCC5CN(c5cc(-c7ccccc7O)nnc5N)C6)ccn4)C3)CC2)no1 (stereo partly drawn) [compound 438, (2S,4R)-1-((2S)-2-(3-(2-(4-((1r,3S)-3-((4-(3-(3-amino-6-(2-hydroxyphenyl)pyridazin-4-yl)-3,8-diazabicyclo[3.2.1]octan-8-yl)pyridin-2-yl)oxy)cyclobutoxy)piperidin-1-yl)ethoxy)isoxazol-5-yl)-3-methylbutanoyl)-N-((1S)-1-(4-(2,2-difluorocyclopropyl)phenyl)ethyl)-4-hydroxypyrrolidine-2-carboxamide]
DC50 (degradation of BRM, read-out: BRM DC50): > 30 nM
